Patent US8148405B2, “Salt I” (AstraZeneca AB, priority 2005, dated 2012)
“And” between values parts separate entries of the source, which are not always exact repeats. Identical values can stand only once. Counter-ions that a name gives are not always drawn. Marks after values point to notes of the source that are not given here.

Assays:
[1] = target: T1, human CCR1 (Homo sapiens, UniProt P32246); experiment: Human CCR1 binding assay ([125I] MIP-1α displacement, HEK-CCR1 membranes)
T1 construct: expressed in transfected cells; membranes
T1 sequence (P32246 1-355): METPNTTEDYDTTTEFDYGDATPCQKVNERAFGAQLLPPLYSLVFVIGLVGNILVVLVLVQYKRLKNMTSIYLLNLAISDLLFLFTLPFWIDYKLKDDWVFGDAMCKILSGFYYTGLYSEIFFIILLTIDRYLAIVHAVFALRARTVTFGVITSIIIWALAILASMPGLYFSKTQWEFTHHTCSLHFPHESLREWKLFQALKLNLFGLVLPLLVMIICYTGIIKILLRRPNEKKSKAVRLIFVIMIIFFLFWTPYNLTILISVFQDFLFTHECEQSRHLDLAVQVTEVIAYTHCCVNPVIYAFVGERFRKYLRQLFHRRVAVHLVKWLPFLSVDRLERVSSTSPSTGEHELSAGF
Method: HEK293 cells, from ECACC, stably expressing recombinant human CCR1 (HEK-CCR1) were used to prepare cell membranes containing CCR1. […] The concentration of membranes of each batch was adjusted to 10% specific binding of 33 pM [^125I] MIP-1α.
100 μL of HEK-CCR1 membranes diluted in assay buffer pH 7.4 (137 mM NaCl (Merck, Cat No 1.06404), 5.7 mM Glucose (Sigma, Cat No G5400), 2.7 mM KCl (Sigma, Cat No P-9333), 0.36 mM NaH2PO4×H2O (Merck, Cat No 1.06346), 10 mM HEPES (Sigma, Cat No H3375), 0.1% (w/v) Gelatine (Sigma, Cat No G2625)) with the addition of 17500 units/L Bacitracin (Sigma, Cat No B 1025) were added to each well of the 96 well filter plate (0.45 μm opaque Millipore cat no MHVB N4550). […] 12 μl assay buffer with 10% DMSO was added to certain wells (without compound) to detect maximal binding (B0).
12 μL [^125I] MIP-1α, diluted in assay buffer to a final concentration in the wells of 33 pM, was added to all wells. The plates with lid were then incubated for 1.5 hrs at room temperature. After incubation the wells were emptied by vacuum filtration (MultiScreen Resist Vacuum Manifold system, Millipore) and washed once with 200 μl assay buffer. After the wash, all wells received an addition of 50 μL of scintillation fluid (OptiPhase “Supermix”, Wallac Oy, Turko, Finland). Bound [^125I] MIP-1α was measured using a Wallac Trilux 1450 MicroBeta counter. […]

[2] = Evaluation of the deaggregation properties of micronised salt (TSI Aerodynamic Particle Sizer); format: physicochemical
Method: This screening study was intended to give some estimation regarding the deaggregation properties of anhydrous N-{2-[((2S)-3-{[1-(4-chlorobenzyl)piperidin-4-yl]amino}-2-hydroxy-2-methylpropyl)oxy]-4-hydroxyphenyl}acetamide benzoate salt, form B (referred to in the remainder of this example as “Form B salt”. The results were compared to the results from an established product powder, the Pulmicort® Turbuhaler® formulation, which was tested identically.
Form B salt was micronised in order to obtain a particle size of less than […]. Pulmicort® Turbuhaler® powder was emptied from the Pulmicort® Turbuhaler®. The latter formulation consists of micronised Budesonide powder that is spheronised into small pellets. The micronization of the Form B salt was performed in a spiral jet mill. Within the inner annular space of the jet mill there is a spiral classification. Fine particles will pass through this classification zone and out through a cyclone at the bottom of the mill. The fraction captured in the exhaust filter of the mill was discarded.
For deaggregation of the powders (both for Pulmicort® Turbuhaler® formulation and the Form B salt), the powders were scrape filled into a simple inhaler device comprising an L-shaped cylindrical channel, comprising a vertical component and a horizontal component.
A Turbuhaler® mouthpiece was fastened to the end of the horizontal component to promote deaggregation of the powder, and the powder to be tested was placed via the vertical channel into the bend of the channel (i.e. the corner of the L-shaped channel). An airflow pulse (see below) then activated the airflow through the vertical component of the channel, entraining the powder located in the bend, and the air-particle mixture is thereafter moved through the horizontal component of the cylinder and finally passed through the Turbuhaler® mouthpiece.
After leaving the Turbuhaler® mouthpiece, the aerosol was transferred to a TSI Aerodynamic Particle Sizer (APS®) with Impactor Inlet 3306 set-up where the aerosol cloud was analysed for its aerodynamic properties and fine particle fraction. The APS set-up was arranged in such a way as to allow withdrawal of doses at optional airflows, followed by counting and aerodynamic classification (ca. 0.3-20 μm) of the particles on a particle by particle basis. Briefly, between the USP throat and the 3306 Impacter Inlet, a three-way pneumatic valve and an NGI pre-separator was positioned. In addition, a tube to a vacuum source via a timer-controlled solenoid valve (Triggor Box) was positioned between the valve and the pre-separator in a T-joint fashion. A short airflow pulse is then generated through the inhaler, USP throat, and pre-separator using the Triggor box. After the end of the air pulse, the pneumatic valve switches so that the aerosol cloud in the pre-separator is drawn into the APS via the 3306 Impacter Inlet for aerodynamic assessment.
Each dose was withdrawn with an airflow pulse of duration 0.4 seconds with maximum airflow at 60 lpm, followed by sampling into the APS instrument. The sampling time in the APS software was set to 20 seconds. The result parameters from the APS were mass median aerodynamic diameter (MMAD), geometric standard deviation (GSD), and a measure of the dose amount (particle counting data converted to mass data using particle density=1) called fine particle dose (FPD).
The two first doses (for each formulation) were released and measured gravimetrically. The mean value of these gravimetric doses, denoted “metered doses” or loaded dose, were used for normalisation of the (FPD), which gives a measure of the fine particle fraction (FPF). The FPF can therefore be used for direct comparison between the two powder formulations (for the instrument set up used). The limit for fine particles was set to an aerodynamic particle size of 7 μm. Seven and five doses were then analysed with the APS for Pulmicort® Turbuhaler® formulation and for Form B salt, respectively. […]

[3] = Hygroscopicity determination (vapor sorption, SGA-100); format: physicochemical; conditions: room temperature (25° C.)
Method: The weight change of a test sample at room temperature (25° C.) and at 80% relative humidity (RH) were investigated by recording adsorption-desorption isotherms using a symmetric vapor-sorption analyser SGA-100 (VTI Corporation) using different methods, the main features being: a single sorption/desorption cycle from 0 to 90% RH in 10% RH steps with a dm/dt trigger value of 0.002%, (dm/dt=change in mass with time—when the balance stability is within this value the next step is automatically started, however, if those conditions are not achieved there is a default maximum time for each step of 6 hours). Approximately 2 to 10 mg of the test sample was placed in a sample holder and exposed to different relative humidities.

[4] = Estimated solubility of the salt in organic solvents; format: physicochemical; conditions: for solubility: organic solvent or mixture
Method: (b) The Form B salt described in (a) above was also prepared by dissolving, in a vial, 20% w of a sample of the benzoate salt prepared by the method of Example 1(b) (Form A) in a solvent such as methanol (>20 mg/ml), ethanol (>20 mg/ml), n-propanol (>20 mg/ml), isopropanol (8.5 mg/ml) or acetone (9.6 mg/ml). The figures in brackets indicate the estimated solubility of the salt in these solvents. The vial was then sealed and the suspension was homogenised at ambient temperature (20° C.) using a magnet. Stirring and temperature were maintained for a period of at least 7 days after which time a sample of the material obtained was dried and tested by XRPD. XRPD confirmed that there had been complete transformation of Form A to Form B.

CC(=O)Nc1ccc(O)cc1OC[C@@](C)(O)CNC1CCN(Cc2ccc(Cl)cc2)CC1 [N-{2-[((2S)-3-{[1-(4-chlorobenzyl)piperidin-4-yl]amino}-2-hydroxy-2-methylpropyl)oxy]-4-hydroxyphenyl}acetamide ditrifluoroacetate]
IC50 [1]: < 50 nM

CC(=O)Nc1ccc(O)cc1OC[C@@](C)(O)CNC1CCN(Cc2ccc(Cl)cc2)CC1 [Form B salt, N-{2-[((2S)-3-{[1-(4-chlorobenzyl)piperidin-4-yl]amino}-2-hydroxy-2-methylpropyl)oxy]-4-hydroxyphenyl}acetamide benzoate]
Normalized FPF (mean FPF Form B salt/mean FPF Pulmicort Turbuhaler formulation) [2]: 164%^a
FPF compared with Pulmicort Turbuhaler formulation ([2]; in words): generally higher
de-aggregation properties (conclusion) ([2]; in words): advantageous de-aggregation properties
FPD (fine particle dose) ([2]; mean of doses): 182 µg
MMAD (mass median aerodynamic diameter) ([2]; mean of doses): 2.16 μm
MMAD (mass median aerodynamic diameter) ([2]; single dose, airflow pulse 0.4 seconds, 60 lpm): 2.28 μm and 2.12 μm and 2.20 μm and 2.10 μm and 2.11 μm
Water Uptake (% w/w) at 80% RH ([3]; listed as Anhydrous Form B): <0.8 % w/w

CC(=O)Nc1ccc(O)cc1OC[C@@](C)(O)CNC1CCN(Cc2ccc(Cl)cc2)CC1 [Form A, N-{2-[((2S)-3-{[1-(4-chlorobenzyl)piperidin-4-yl]amino}-2-hydroxy-2-methylpropyl)oxy]-4-hydroxyphenyl}acetamide benzoate]
Water Uptake (% w/w) at 80% RH ([3]; listed as Anhydrous Form A): <2 % w/w
estimated solubility ([4]; acetone): 9.6 mg/mL
solubility ([4]; ethanol): > 20 mg/mL
estimated solubility ([4]; isopropanol): 8.5 mg/mL
solubility ([4]; methanol): > 20 mg/mL
solubility ([4]; n-propanol): > 20 mg/mL
